In patent publication US10189796B2, “[4-(1,3,3-trimethyl-2-oxo-3,4-dihydro-1H-quinoxalin-7-yl)phenoxy]ethyloxy compound or salt thereof” (SANTEN PHARMACEUTICAL CO., LTD., priority 2015, dated 2019):
pIC50: −log10 of the molar value.

What was measured:
Recombinant human GR = Recombinant human GR (Homo sapiens (Human), UniProt P04150); test: GR competitive binding assay by fluorescence polarization; settings: 20 μM test compound solution, 10 μL/well; 2 hours; DEX positive control; read-out: GR binding rate (%)
Description: In order to evaluate a binding activity of the present compound to GR, a GR receptor competitor assay was carried out by a fluorescence polarization method. In the assay, a GR competitive binding assay kit (manufactured by Invitrogen, cat No. P2816) was used for the assay, and a procedure was carried out according to the protocol attached to the kit. Hereinafter, the specific method will be described.
GR screening buffer: A buffer containing 10 mM of potassium phosphate (pH 7.4), 20 mM of sodium molybdate (Na2MoO4), 0.1 mM of ethylene diamine tetraacetic acid (EDTA), 5 mM of dithiothreitol (DTT), 0.1 mM of stabilizing peptide and 2% of dimethylsulfoxide was prepared.
4×GS1 solution: Fluormone™ GS1, which is a fluorescent glucocorticoid ligand, was diluted with GR screening buffer, whereby a 4 nM solution was prepared.
4×GR solution: Recombinant human GR was diluted with GR screening buffer, whereby a 16 nM solution was prepared.
After a test compound was dissolved in dimethylsulfoxide, the resulting solution was diluted with GR screening buffer, whereby a 20 μM test compound solution was prepared. In addition, DEX was similarly dissolved, whereby a DEX solution with a […] concentration was prepared, and the solution was diluted with GR screening buffer, whereby a 2 mM DEX solution was prepared. DEX was used as positive control.
• 1) The test compound solution was added in an amount of 10 μL into each well of a 384-well plate. • 2) 4×GS1 solution and 4×GR solution were added in an amount of 5 μL into each well, respectively. • 3) GR screening buffer was added in an amount of 10 μL/well into each well in place of the test compound solution, which was made a negative control. • 4) A 2 mM of DEX was added in an amount of 10 μL/well into each well in place of the test compound solution, which was made a positive control. • 5) The plate was incubated in a dark place at room temperature for 2 hours, and fluorescence polarization of each well was measured. (Calculation Equation of GR Binding Ratio)
A GR binding ratio (%) was calculated from the following equation. GR binding ratio (%)=100×{1−(fluorescence polarization of test compound solution−average value of fluorescence polarization of positive control solution)/(average value of fluorescence polarization of negative control solution−average value of fluorescence polarization of positive control solution)}

[1] = test system: TNFα production in rat whole blood; test: TNFα production inhibitory action evaluation test (LPS stimulation ex vivo, ELISA); format: cell-based; settings: 20 hours, 200 μM test compound solution 10 μL/well, DEX treated group = 100, read-out: TNFα production inhibitory ratio (% DEX)
Description: In order to evaluate an action of the present compound as a GR agonist, a TNFα production inhibitory action in rat whole blood after LPS stimulation ex vivo was investigated. For the measurement of the TNFα production amount, the ELISA method (manufactured by R&D Systems, Cat No. RTA00) was used, and a procedure was carried out according to the protocol attached thereto. Hereinafter, the specific method will be described.
LPS solution: LPS was dissolved in PBS(−) and diluted with RPMI 1640 to prepare an LPS solution with a concentration of 2 μg/mL.
After the test compound was dissolved in dimethylsulfoxide, the solution was diluted with PBS(−) to prepare 200 μM of a test compound solution. In addition, DEX was similarly dissolved to prepare 200 μM of a DEX solution, and a TNFα production inhibitory ratio of DEX was measured, and used for calculation of Efficacy (% DEX).
• 1) Blood was collected from 3 to 5 rats using an injection syringe treated with heparin from the abdominal aorta under isoflurane anesthesia. The rats confirmed death after lething the whole blood. • 2) The blood of 3 to 5 rats pooled in a 96-well round bottom culture plate was seeded at each 180 μL/well. • 3) It was cultured (37° C., 5% CO2, 95% air) for about 1 hour. • 4) The test compound solution was added each 10 μL/well, and cultured for 1 hour. • 5) LPS solution was added each 10 μL/well. • 6) The sample in which 2% dimethylsulfoxide-containing PBS(−) was added with each 10 μL/well in place of each test compound solution, and RPMI 1640 was added with each 10 μL/well in place of the LPS solution was made a negative control. • 7) The sample in which 2% dimethylsulfoxide-containing PBS(−) was added with each 10 μL/well in place of each test compound solution was made a positive control. • 8) After completion of 20 hours cultivation, the supernatant was recovered and the amount of TNFα released in the supernatant was measured by using an ELISA Kit. • 9) The TNFα production inhibitory ratio was calculated according to the following calculation formula. (Calculation of TNFα Production Inhibitory Ratio)
TNFα production inhibitory ratio (%) was calculated according to the following formula. TNFα production inhibitory ratio (%)=100×{1−(TNFα production amount of each test compound solution−average value of TNFα production amount of negative control group)/(average value of TNFα production amount of positive control group−average value of TNFα production amount of negative control group)}(%)
(§1) Further, a TNFα production inhibitory ratio (Efficacy (% DEX)) when the DEX treated group was made 100 was calculated. Efficacy (% DEX)=100×{(average value of TNFα production inhibitory ratio of each test compound solution)/(average value of TNFα production inhibitory ratio of DEX treated group)}(%)

[2] = test system: IL-6 production in human corneal epithelium cell line (HCE-T); test: IL-6 production inhibitory action evaluation test (LPS stimulation, HTRF); format: cell-based; settings: 4 hours
Description: To evaluate the action of the present compounds as a GR agonist, IL-6 production inhibitory action in human corneal epithelial cell line after LPS stimulation was examined The IL-6 production was measured by using the HTRF method (Cat No. 62IL6PEB manufactured by Cisbio Bioassays, Inc.) according to the attached protocol. The specific method is described below.
LPS solution: After dissolving LPS in PBS(−), the resulting solution was diluted with a culture solution, whereby an LPS solution with a 1 μg/mL concentration was prepared.
After dissolving the test compound in dimethylsulfoxide, the solution was diluted with a 10% FBS-DMEM/Ham's F12 medium, whereby a 100 μM of the test compound solution was prepared. […] In addition, DEX was similarly dissolved, whereby a 100 μM concentration of the DEX solution was prepared, and an IL-6 production inhibitory ratio of DEX was measured, and used for calculation of Efficacy (% DEX).
Used cells: human corneal epithelium cell line (HCE-T) (RIKEN, Institute of Physical and Chemical Research)
The cells continued to subculture according to this method were used for the test. (Test Method and Measurement Method) • 1) The subcultured HCE-T was recovered and the cells were seeded at 2.0×10^4 cells/0.1 mL/well in a 96-well flat bottom culture plate. • 2) After culturing overnight, medium the medium was removed and each 80 μL/well of 10%
FBS-DMEM/Ham's F12 medium was added. • 3) Test compound solution was added with each 10 μL/well. • 4) LPS solution was added with each 10 μL/well. • 5) The sample to which 1% dimethylsulfoxide-containing 10% FBS-DMEM/Ham's F12 medium was added with each 10 μL/well in place of each test compound solution, and 10% FBS-DMEM/Ham's F12 medium was added in place of the LPS solution was made a negative control. • 6) The sample in which 1% dimethylsulfoxide-containing 10% FBS-DMEM/Ham's F12 medium was added with each 10 μL/well in place of each test compound solution was made a positive control. • 7) After completion of 4 hours cultivation, the supernatant was recovered and the amount of IL-6 released in the supernatant was measured by using an HTRF human IL-6 Kit. • 8) The IL-6 production inhibitory ratio was calculated according to the following calculation formula. (Calculation of IL-6 Production Inhibitory Ratio)
The IL-6 production inhibitory ratio (%) was calculated by the following formula. IL-6 production inhibitory ratio (%)=100×{1−(IL-6 produced amount of each test compound solution−average value of IL-6 produced amount of negative control group)/(average value of IL-6 produced amount of positive control group−average value of IL-6 produced amount of negative control group)}(%)
as §1, with “the IL-6” for “a TNFα”, “IL-6” for “TNFα”
In addition, IC50 was calculated according to a conventional method. IDBS XLfit4 was used for the calculation.

[3] = test system: VEGF-induced retinal elevated vascular permeability model of rabbits; test: Retinal vascular permeability model evaluation test; format: in vivo, rabbit; settings: 2% 50 μL/base agent A, intravitreal once; 4 weeks before VEGF induction
Description: In order to evaluate the inhibitory effect of the present compounds on VEGF-induced retinal vascular permeability, the inhibitory effect of the present compound on retinal vascular permeability in a VEGF-induced retinal elevated vascular permeability model of rabbits was evaluated. Incidentally, this effect was evaluated by calculating a leaked amount of the fluorescent dye of the base agent administered group (non-induced group), a leaked amount of the fluorescent dye of the base agent administered group (control group) and a leaked amount of the fluorescent dye of the test compound administered group.
To the test compound was added 0.01% Polysorbate 80/0.5% sodium carboxymethyl cellulose/PBS (hereinafter referred to as “base agent A”.), whereby 2% (W/V) or 8% (W/V) of the test compound suspension was prepared. Or else, to the test compound was added PEG400 (hereinafter referred to as “base agent B”.), whereby 6% (W/W) of the test compound solution was prepared.
VEGF solution: humanVEGF165 was dissolved in PBS to prepare 50 μg/mL of VEGF solution.
• 1) A mixed solution (1 mL/kg) of 5% ketamine hydrochloride injection solution and 2% xylazine hydrochloride injection solution with the ratio of 7:1 was intramuscularly administered to rabbits (Dutch male rabbits), and the rabbits were anesthetized. • 2) Tropicamide-phenylephrine hydrochloride ophthalmic solution (trade name: Midlin P) was eye dropped to maintain pupillary mydriasis, and then, the VEGF solution was intravitreally administered. Incidentally, PBS was intravitreally administered to the base agent administration group (non-induced group). • 3) Fluorescein was intravenously administered 2 days after intravitreal administration of VEGF. Two hours after the intravenous administration of fluorescein, an amount of the leaked fluorescent dye in the vitreous body was measured by using a fluorophotometer. (Test Method) • 1) One week before or 4 weeks before VEGF-induction, 50 μL of the test compound suspension (prepared by the base agent A) was intravitreally administered once, or 5 μL of the test compound solution (prepared by the base agent B) was intravitreally administered once. Incidentally, in the base agent administered group (non-induced group) and the base agent administered group (control group), the base agent A was used in place of the test compound suspension, or the base agent B was used in place of the test compound solution. • 2) Inhibition ratio of elevated retinal vascular permeability was calculated according to the following calculation formula. (Calculation Formula) Inhibitory ratio (%) on elevated retinal vascular permeability of the test compound administered group=100×{1−(average value of a leaked fluorescent dye amount in the test compound administered group−average value of a leaked fluorescent dye amount in the base agent administered group (non-induced group))/(average value of a leaked fluorescent dye amount in the base agent administered group (control group)−average value of a leaked fluorescent dye amount of the base agent administered group (non-induced group))}

Chain of Recombinant human GR (P04150 whole entry): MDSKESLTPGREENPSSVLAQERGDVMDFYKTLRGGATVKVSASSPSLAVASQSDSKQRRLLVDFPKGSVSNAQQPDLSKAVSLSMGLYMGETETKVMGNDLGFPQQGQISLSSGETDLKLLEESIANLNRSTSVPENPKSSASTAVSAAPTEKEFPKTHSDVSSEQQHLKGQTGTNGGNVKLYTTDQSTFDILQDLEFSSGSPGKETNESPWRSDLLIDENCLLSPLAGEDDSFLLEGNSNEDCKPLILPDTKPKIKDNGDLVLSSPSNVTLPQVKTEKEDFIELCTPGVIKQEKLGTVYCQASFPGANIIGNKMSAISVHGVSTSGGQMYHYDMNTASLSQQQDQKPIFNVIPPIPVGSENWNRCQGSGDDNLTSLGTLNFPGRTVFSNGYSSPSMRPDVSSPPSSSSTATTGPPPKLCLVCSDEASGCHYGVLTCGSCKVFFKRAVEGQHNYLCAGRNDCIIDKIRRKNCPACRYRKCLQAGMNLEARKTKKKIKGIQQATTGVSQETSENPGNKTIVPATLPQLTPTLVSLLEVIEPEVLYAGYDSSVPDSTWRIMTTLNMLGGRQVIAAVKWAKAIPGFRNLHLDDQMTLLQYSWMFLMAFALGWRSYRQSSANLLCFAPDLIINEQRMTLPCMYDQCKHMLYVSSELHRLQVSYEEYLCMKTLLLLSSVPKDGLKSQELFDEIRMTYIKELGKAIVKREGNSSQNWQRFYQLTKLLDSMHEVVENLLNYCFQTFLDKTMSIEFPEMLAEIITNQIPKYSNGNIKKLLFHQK

Compound | inhibition at 10 µM (Recombinant human GR) | Emax [1] | Emax ([2]; 100 μM test compound solution 10 μL/well, DEX treated group = 100, read-out: IL-6 production inhibitory ratio (% DEX)) | pIC50 ([2]; IL-6 production inhibition) | Inhibitory ratio (%) on elevated vascular permeability [3]
COc1cc(OC[C@@H](C)O)ccc1-c1ccc2c(c1COc1cc(F)ccc1C)N(C)C(=O)C(C)(C)N2 [Compound 1-3, (R)-8-(5-fluoro-2-methylphenoxymethyl)-7-[4-(2-hydroxypropyl)oxy-2-methoxy-phenyl]-1,3,3-trimethyl-3,4-dihydro-1H-quinoxalin-2-one] | 95% | 93% | – | – | –
CC[C@@H](O)COc1ccc(-c2ccc3c(c2COc2cc(F)ccc2C)N(C)C(=O)C(C)(C)N3)c(OC)c1 [Compound 1-4, (R)-8-(5-fluoro-2-methylphenoxymethyl)-7-[4-(2-hydroxybutyl)oxy-2-methoxyphenyl]-1,3,3-trimethyl-3,4-dihydro-1H-quinoxalin-2-one] | > 99% | 94% | 92% | 7.47 | –
COc1cc(OC[C@H](C)OC(=O)C2CCCN2)ccc1-c1ccc2c(c1COc1cc(F)ccc1C)N(C)C(=O)C(C)(C)N2.Cl (stereo partly drawn) [Compound 11-2, 8-(5-Fluoro-2-methylphenoxymethyl)-7-[4-[(2S)-[(2S)-pyrrolidylcarbonyloxy]-propyl]oxy-2-methoxyphenyl]-1,3,3-trimethyl-3,4-dihydro-1H-quinoxalin-2-one hydrochloride] | – | – | – | – | 92%
COc1cc(OC[C@H](O)CCO)ccc1-c1ccc2c(c1COc1cc(F)ccc1C)N(C)C(=O)C(C)(C)N2 [Compound 2-2, (R)-7-[4-(2,4-dihydroxybutyl)oxy-2-methoxyphenyl]-8-(5-fluoro-2-methyl-phenoxymethyl)-1,3,3-trimethyl-3,4-dihydro-1H-quinoxalin-2-one] | 91% | 95% | – | – | –
COc1cc(OCC(O)CC(=O)N2CCOCC2)ccc1-c1ccc2c(c1COc1cc(F)ccc1C)N(C)C(=O)C(C)(C)N2 (stereo not drawn) [Compound 10-2, 8-(5-fluoro-2-methylphenoxymethyl)-7-[4-[3-(N-morpholino)carbonyl-2-hydroxypropyl]oxy-2-methoxyphenyl]-1,3,3-trimethyl-3,4-dihydro-1H-quinoxalin-2-one] | > 99% | > 99% | – | – | –
COc1cc(OCC(O)C(F)(F)F)ccc1-c1ccc2c(c1COc1cc(F)ccc1C)N(C)C(=O)C(C)(C)N2 (stereo not drawn) [Compound 1-2, 8-(5-Fluoro-2-methylphenoxymethyl)-7-[4-(2-hydroxy-3,3,3-trifluoro-propyl)oxy-2-methoxyphenyl]-1,3,3-trimethyl-3,4-dihydro-1H-quinoxalin-2-one] | – | 94% | – | – | –
